In patent US12098148B2, “Therapeutic compounds” (C4X Discovery Limited, priority 2018, dated 2024):

Key:
[1] = molecular target: human KEAP1 (N-term, residues 321-609) (Homo sapiens, UniProt Q14145); test: biochemical;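 note: fluorescence polarization competition assay of Kelch domain binding to NRF2, 12-point 1:3 dilution series from 10 µM, read after 1 h at room temperature, floor 10 nM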
[2] = test system: NQO1 mRNA in BEAS-2B cells; test: Beas2B NQO1 mRNA cell based assay; set-up: species or system human; settings: Homo sapiens, BEAS-2B, 24 h, 24 h compound treatment, increase in NQO1 mRNA vs vehicle (0.1% DMSO), read-out: EC50
How it was run: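 Relative NQO1 transcript level derived by ΔΔCT with human β-actin as internal control, using direct-lysate one-step RT-qPCR. Cells were BEAS-2B, plated overnight then treated with compound for 24 h.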

human KEAP1 (N-term, residues 321-609), sequence (Q14145 321-609): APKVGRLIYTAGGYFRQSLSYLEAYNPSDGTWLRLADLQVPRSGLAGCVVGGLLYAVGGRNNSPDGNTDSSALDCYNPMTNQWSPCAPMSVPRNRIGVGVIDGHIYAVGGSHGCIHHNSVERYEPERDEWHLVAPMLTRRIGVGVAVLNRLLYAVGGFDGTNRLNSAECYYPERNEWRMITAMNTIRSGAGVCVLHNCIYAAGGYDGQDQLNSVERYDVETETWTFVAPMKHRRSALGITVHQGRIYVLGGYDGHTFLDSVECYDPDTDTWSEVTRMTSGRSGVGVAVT

Structure (SMILES)	IC50 [1] [nM]	EC50 [2] [nM]
O=C(O)[C@H]1CCCC[C@H]1C(=O)N1CCc2c(Cl)ccc(OCc3nnc4ccccn34)c2[C@H]1CN1Cc2ccccc2C1=O [Example 50]	7.7	2
Cn1nnc(COc2ccc(Cl)c3c2[C@@H](CN2CC4(CC4)CC2=O)N(C(=O)[C@@H]2CCCO[C@@H]2C(=O)O)CC3)c1C(F)F [Example 226, (2S,3R)-3-((S)-5-chloro-8-((5-(difluoromethyl)-1-methyl-1H-1,2,3-triazol-4-yl)methoxy)-1-((6-oxo-5-azaspiro[2.4]heptan-5-yl)methyl)-1,2,3,4-tetrahydroisoquinoline-2-carbonyl)tetrahydro-2H-pyran-2-carboxylic acid]	5	14
Cn1nnc(COc2ccc(Cl)c3c2[C@@H](CN2CCCC2=O)N(C(=O)[C@@H]2CCC[C@@H]2C(=O)O)CC3)c1C(F)F [Example 86, (1S,2R)-2-((S)-5-Chloro-8-((5-(difluoromethyl)-1-methyl-1H-1,2,3-triazol-4-yl)methoxy)-1-((2-oxopyrrolidin-1-yl)methyl)-1,2,3,4-tetrahydroisoquinoline-2-carbonyl)cyclopentane-1-carboxylic acid]	5	8.3
CC(=O)N1CC[C@H](Oc2c(Cl)cc(Cl)c3c2[C@@H](CN2C(=O)c4ccccc4C2=O)N(C(=O)[C@@H]2CCCC[C@@H]2C(=O)O)CC3)C1 [Example 13, (1S,2R)-2-((S)-8-(((S)-1-Acetylpyrrolidin-3-yl)oxy)-5,7-dichloro-1-((1,3-dioxoisoindolin-2-yl)methyl)-1,2,3,4-tetrahydroisoquinoline-2-carbonyl)cyclohexane-1-carboxylic acid]	8.5	530
Cn1nnc(COc2ccc(Cl)c3c2[C@@H](CN2Cc4ccccc4C2=O)N(C(=O)[C@@H]2CCCC[C@@H]2C(=O)O)CC3)c1C(F)F [Example 53, (1S,2R)-2-((S)-5-chloro-8-((5-(difluoromethyl)-1-methyl-1H-1,2,3-triazol-4-yl)methoxy)-1-((1-oxoisoindolin-2-yl)methyl)-1,2,3,4-tetrahydroisoquinoline-2-carbonyl)cyclohexane-1-carboxylic acid]	6.2	1.4
CC(C)c1nc(COc2ccc(Br)c3c2[C@@H](CN2CCCC2=O)N(C(=O)[C@@H]2CCCC[C@@H]2C(=O)O)CC3)no1 [Example 66, (1S,2R)-2-((S)-5-bromo-8-((5-isopropyl-1,2,4-oxadiazol-3-yl)methoxy)-1-((2-oxopyrrolidin-1-yl)methyl)-1,2,3,4-tetrahydroisoquinoline-2-carbonyl) cyclohexane-1-carboxylic acid]	5.7	27
Cc1nc(COc2ccc(Br)c3c2[C@@H](CN2Cc4ccccc4C2=O)N(C(=O)[C@@H]2CCCC[C@@H]2C(=O)O)CC3)no1 [Example 24, (1S,2R)-2-((S)-5-Bromo-8-((5-methyl-1,2,4-oxadiazol-3-yl)methoxy)-1-((1-oxoisoindolin-2-yl)methyl)-1,2,3,4-tetrahydroisoquinoline-2-carbonyl)cyclohexane-1-carboxylic acid]	9.1	41
Cc1cnc(COc2ccc(Br)c3c2[C@@H](CN2CCCC2=O)N(C(=O)[C@@H]2CCCC[C@@H]2C(=O)O)CC3)s1 [Example 65, (1S,2R)-2-((S)-5-bromo-8-((5-methylthiazol-2-yl)methoxy)-1-((2-oxopyrrolidin-1-yl)methyl)-1,2,3,4-tetrahydroisoquinoline-2-carbonyl) cyclohexane-1-carboxylic acid]	11	97

More lines, main results first:

IC50 [1] [nM]	Structure (SMILES)	EC50 [2] [nM]
6.3	Cn1nnc(COc2ccc(Cl)c3c2[C@@H](CN2CC4(CC4)CC2=O)N(C(=O)[C@@H]2CCC[C@]2(C)C(=O)O)CC3)c1C(F)F [Example 110, (1S,2R)-2-((S)-5-Chloro-8-((5-(difluoromethyl)-1-methyl-1H-1,2,3-triazol-4-yl)methoxy)-1-((6-oxo-5-azaspiro[2.4]heptan-5-yl)methyl)-1,2,3,4-tetrahydroisoquinoline-2-carbonyl)-1-methylcyclopentane-1-carboxylic acid]	1.3
5.6	C[C@]1(C(=O)O)CCCC[C@H]1C(=O)N1CCc2c(Cl)ccc(OCc3nnn4c3CCCC4)c2[C@H]1CN1CCOCC1=O [Example 196]	0.97
12	C[C@@H]1CCN(C[C@@H]2c3c(OCc4nnn(C)c4C(F)(F)F)ccc(Cl)c3CCN2C(=O)[C@@H]2CCCC[C@]2(C)C(=O)O)C1=O [Example 131, (1S,2R)-2-((S)-5-chloro-1-(((R)-3-methyl-2-oxopyrrolidin-1-yl)methyl)-8-((1-methyl-5-(trifluoromethyl)-1H-1,2,3-triazol-4-yl)methoxy)-1,2,3,4-tetrahydroisoquinoline-2-carbonyl)-1-methylcyclohexane-1-carboxylic acid]	200
8.2	CC[C@]1(C(=O)O)CCCC[C@H]1C(=O)N1CCc2c(Cl)ccc(OCc3nnn(C)c3C(F)F)c2[C@H]1CN1CCCC1=O [Example 117, (1S,2R)-2-((S)-5-chloro-8-((5-(difluoromethyl)-1-methyl-1H-1,2,3-triazol-4-yl)methoxy)-1-((2-oxopyrrolidin-1-yl)methyl)-1,2,3,4-tetrahydroisoquinoline-2-carbonyl)-1-ethylcyclohexane-1-carboxylic acid]	37
7.5	Cc1cc(COc2ccc(Cl)c3c2[C@@H](CN2CCCC2=O)N(C(=O)[C@@H]2CCCC[C@]2(C)C(=O)O)CC3)no1 [Example 166, (1S,2R)-2-((S)-5-chloro-8-((5-methylisoxazol-3-yl)methoxy)-1-((2-oxopyrrolidin-1-yl)methyl)-1,2,3,4-tetrahydroisoquinoline-2-carbonyl)-1-methylcyclohexane-1-carboxylic acid]	40
7.9	C[C@@H]1CCC(=O)N1C[C@@H]1c2c(OCc3nnn(C)c3C(F)F)ccc(Cl)c2CCN1C(=O)[C@@H]1CCCC[C@]1(C)C(=O)O [Example 194, (1S,2R)-2-((S)-5-chloro-8-((5-(difluoromethyl)-1-methyl-1H-1,2,3-triazol-4-yl)methoxy)-1-(((R)-2-methyl-5-oxopyrrolidin-1-yl)methyl)-1,2,3,4-tetrahydroisoquinoline-2-carbonyl)-1-methylcyclohexane-1-carboxylic acid]	12
16	C[C@]1(C(=O)O)CCCC[C@H]1C(=O)N1CCc2c(Cl)ccc(OCc3nnn(CC(F)(F)F)c3C(F)F)c2[C@H]1CN1CCCC1=O [Example 155, (1S,2R)-2-((S)-5-chloro-8-((5-(difluoromethyl)-1-(2,2,2-trifluoroethyl)-1H-1,2,3-triazol-4-yl)methoxy)-1-((2-oxopyrrolidin-1-yl)methyl)-1,2,3,4-tetrahydroisoquinoline-2-carbonyl)-1-methylcyclohexane-1-carboxylic acid]	4.8
6.3	Cn1cc(COc2ccc(Cl)c3c2[C@@H](CN2CC4(CC4)CC2=O)N(C(=O)[C@@H]2CCCC[C@]2(C)C(=O)O)CC3)nn1 [Example 158, (1S,2R)-2-((S)-5-chloro-8-((1-methyl-1H-1,2,3-triazol-4-yl)methoxy)-1-((6-oxo-5-azaspiro[2.4]heptan-5-yl)methyl)-1,2,3,4-tetrahydroisoquinoline-2-carbonyl)-1-methylcyclohexane-1-carboxylic acid]	1.2
